41 molecules from ChEMBL document CHEMBL1177782, “Synthesis and biological evaluation of oxazole derivatives as T-type calcium channel blockers” (Bioorg Med Chem Lett, 2010) can be followed below.

Assay [1] addresses T1, Voltage-dependent T-type calcium channel subunit alpha-1G (Homo sapiens, UniProt O43497). The assay is described as follows: Inhibition of T-type CaV3.1 channel expressed in HEK293 cells assessed as inhibition of calcium current at 10 uM by fluorescence based HTS FDSS6000 assay. It is filed as cell-based.
The target of assay [2] is T1, Voltage-dependent T-type calcium channel subunit alpha-1G. Nature of the assay: Inhibition of T-type CaV3.1 channel expressed in HEK293 cells assessed as inhibition of calcium current by automated patch-clamp assay. The format is cell-based.

T1 sequence (O43497 whole entry): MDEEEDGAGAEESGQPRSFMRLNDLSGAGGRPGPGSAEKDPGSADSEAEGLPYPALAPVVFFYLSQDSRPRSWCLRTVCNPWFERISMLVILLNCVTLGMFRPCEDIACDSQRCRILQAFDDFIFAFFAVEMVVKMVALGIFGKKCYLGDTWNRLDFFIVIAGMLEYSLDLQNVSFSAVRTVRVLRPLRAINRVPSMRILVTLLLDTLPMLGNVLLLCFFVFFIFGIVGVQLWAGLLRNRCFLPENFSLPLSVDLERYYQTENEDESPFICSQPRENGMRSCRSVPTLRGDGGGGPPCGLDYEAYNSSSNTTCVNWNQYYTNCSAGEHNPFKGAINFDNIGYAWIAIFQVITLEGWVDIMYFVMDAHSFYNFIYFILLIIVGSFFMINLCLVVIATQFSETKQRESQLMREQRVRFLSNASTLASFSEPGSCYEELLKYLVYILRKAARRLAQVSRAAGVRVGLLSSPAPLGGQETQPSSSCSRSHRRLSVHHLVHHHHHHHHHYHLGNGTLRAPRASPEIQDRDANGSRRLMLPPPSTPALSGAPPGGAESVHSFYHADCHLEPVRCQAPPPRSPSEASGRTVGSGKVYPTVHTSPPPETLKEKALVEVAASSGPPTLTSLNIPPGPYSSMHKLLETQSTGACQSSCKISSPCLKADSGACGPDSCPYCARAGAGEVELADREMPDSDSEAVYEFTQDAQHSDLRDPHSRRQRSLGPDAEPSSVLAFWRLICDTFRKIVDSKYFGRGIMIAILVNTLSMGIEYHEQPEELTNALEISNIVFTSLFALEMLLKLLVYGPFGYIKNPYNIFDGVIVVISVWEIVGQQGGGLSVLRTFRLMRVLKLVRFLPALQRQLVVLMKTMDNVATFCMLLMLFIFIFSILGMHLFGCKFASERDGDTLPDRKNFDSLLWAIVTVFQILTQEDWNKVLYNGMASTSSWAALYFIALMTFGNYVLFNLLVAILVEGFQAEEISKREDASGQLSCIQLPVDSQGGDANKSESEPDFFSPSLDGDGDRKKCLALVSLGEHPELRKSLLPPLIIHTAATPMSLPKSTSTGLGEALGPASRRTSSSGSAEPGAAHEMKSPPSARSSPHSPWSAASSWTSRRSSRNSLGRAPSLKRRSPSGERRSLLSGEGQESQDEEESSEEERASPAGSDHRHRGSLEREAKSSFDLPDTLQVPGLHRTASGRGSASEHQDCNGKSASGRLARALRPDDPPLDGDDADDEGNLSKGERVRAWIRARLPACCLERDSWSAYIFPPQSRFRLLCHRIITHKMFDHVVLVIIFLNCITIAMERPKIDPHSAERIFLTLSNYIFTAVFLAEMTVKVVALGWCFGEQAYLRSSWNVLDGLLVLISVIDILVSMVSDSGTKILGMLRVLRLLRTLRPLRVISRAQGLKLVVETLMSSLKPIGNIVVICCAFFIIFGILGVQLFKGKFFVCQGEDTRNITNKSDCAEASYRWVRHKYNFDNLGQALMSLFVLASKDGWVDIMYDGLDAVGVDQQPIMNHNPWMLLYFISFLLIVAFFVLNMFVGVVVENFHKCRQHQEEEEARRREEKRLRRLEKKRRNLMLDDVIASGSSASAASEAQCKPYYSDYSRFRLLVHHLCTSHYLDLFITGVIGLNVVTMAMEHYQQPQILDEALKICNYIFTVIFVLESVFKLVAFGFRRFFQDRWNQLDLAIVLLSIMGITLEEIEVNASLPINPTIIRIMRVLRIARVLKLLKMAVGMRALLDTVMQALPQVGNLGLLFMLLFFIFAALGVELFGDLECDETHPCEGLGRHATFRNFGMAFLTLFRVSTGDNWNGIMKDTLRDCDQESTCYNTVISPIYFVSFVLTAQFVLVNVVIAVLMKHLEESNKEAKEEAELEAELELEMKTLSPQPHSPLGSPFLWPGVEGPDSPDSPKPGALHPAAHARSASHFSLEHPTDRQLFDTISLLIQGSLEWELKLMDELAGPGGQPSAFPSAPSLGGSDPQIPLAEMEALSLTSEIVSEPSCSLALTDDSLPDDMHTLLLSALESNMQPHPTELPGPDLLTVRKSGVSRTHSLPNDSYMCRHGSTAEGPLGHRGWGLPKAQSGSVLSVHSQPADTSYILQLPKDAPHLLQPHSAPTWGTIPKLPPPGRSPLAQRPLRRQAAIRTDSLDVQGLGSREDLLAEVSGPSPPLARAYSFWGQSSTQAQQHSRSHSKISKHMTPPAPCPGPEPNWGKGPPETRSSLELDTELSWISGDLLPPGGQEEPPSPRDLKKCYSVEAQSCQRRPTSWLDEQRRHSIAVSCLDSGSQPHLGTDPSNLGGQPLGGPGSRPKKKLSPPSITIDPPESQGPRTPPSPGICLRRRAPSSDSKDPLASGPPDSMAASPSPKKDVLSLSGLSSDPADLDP

In the case of `CCCc1nc(-c2ccccc2)c(CNCCCN2CCN(c3ccc(C)c(C)c3)CC2)o1`, the inhibition in assay [1] came out at 54.6%. Moreover, in assay [2], the half-inhibitory concentration (IC50) came to 3020 nM.
For `CCCc1nc(-c2ccccc2)c(CNCCN2CCN(c3ccc(OC)cc3)CC2)o1`, in assay [1], the inhibition amounted to 51.5%. Also, the IC50 in assay [2] is 9200 nM.
`CCCc1nc(-c2ccccc2)c(CNCCN2CCN(c3cccc(OC)c3)CC2)o1`: the inhibition in assay [1] worked out at 40.2%.
Consider `CCCc1nc(-c2ccccc2)c(CNCCN2CCN(c3cccc(C)c3)CC2)o1`, for which the inhibition in assay [1] was determined as 43.1%.
On the same count and under the same terms, the figure for `Cc1nc(-c2ccccc2)c(CNCCCN2CCN(c3ccc(Cl)cc3)CC2)o1` is 38.1%.
Consider `CCCc1nc(-c2ccccc2)c(CNCCN2CCN(c3ccc(F)cc3)CC2)o1`, for which the inhibition in assay [1] was 54.1%. The IC50 in assay [2] is 7080 nM.
The like results for `CCCc1nc(-c2ccccc2)c(CNCCCN2CCN(c3ccccc3F)CC2)o1` were, in that order, 54.4% and 16100 nM.
As for `CCCc1nc(-c2ccccc2)c(CNCCCN2CCN(c3ccc(C)cc3)CC2)o1`, the inhibition in assay [1] turned out to be 53.9%. The IC50 in assay [2] came to 130000 nM.
As for `CCCc1nc(-c2ccccc2)c(CNCCN2CCN(c3ccccc3OC)CC2)o1`, the inhibition in assay [1] was found to be 39.7%.
`CCCc1nc(-c2ccccc2)c(CNCCCN2CCN(c3ccc(OC)cc3)CC2)o1`: in assay [1], the inhibition is 42.1%.
As to `CCCc1nc(-c2ccccc2)c(CNCCCN2CCN(c3ccccc3)CC2)o1`, the inhibition in assay [1] worked out at 43.7%.
In the case of `CCCc1nc(-c2ccccc2)c(CNCCCN2CCN(c3ccccc3OC)CC2)o1`, the inhibition in assay [1] was determined as 41%.
As to `CCCc1nc(-c2ccccc2)c(CNCCN2CCN(c3ccc(C)cc3C)CC2)o1`, in assay [1], the inhibition is 64.3%. The IC50 in assay [2] came out at 2220 nM.
With `CCCc1nc(-c2ccccc2)c(CNCCCN2CCN(c3ccc(Cl)cc3)CC2)o1`, in assay [1], the inhibition was 63.2%. In assay [2], the IC50 came to 1310 nM.
Take `CCCc1nc(-c2ccccc2)c(CNCCN2CCN(c3cccc(C(F)(F)F)c3)CC2)o1`: the inhibition in assay [1] stood at 56.3%. Moreover, in assay [2], the IC50 was found to be 1940 nM.
The like results for `CCCc1nc(-c2ccccc2)c(CNCCCN2CCN(c3cccc(C)c3C)CC2)o1` were, in that order, 55.2% and 1780 nM.
Regarding `CCCc1nc(-c2ccccc2)c(CNCCCN2CCN(c3ccccc3C)CC2)o1`, the inhibition in assay [1] was found to be 54.5%. Also, the IC50 in assay [2] worked out at 8750 nM.
The like results for `CCCc1nc(-c2ccccc2)c(CNCCCN2CCN(c3cccc(C)c3)CC2)o1` were, in that order, 47.8% and 1190 nM.
For `CCCc1nc(-c2ccccc2)c(CNCCN2CCN(c3cccc(Cl)c3)CC2)o1`, in assay [1], the inhibition came out at 51.2%. For the same molecule, the IC50 in assay [2] is 1450 nM.
The matching figures for `CCCc1nc(-c2ccccc2)c(CNCCCN2CCN(c3cccc(C(F)(F)F)c3)CC2)o1`: 51.6% and 650 nM.
The like results for `CCCc1nc(-c2ccccc2)c(CNCCN2CCN(c3ccc(C(F)(F)F)cc3)CC2)o1` were, in that order, 58.7% and 1300 nM.
The like results for `CCCc1nc(-c2ccccc2)c(CNCCCN2CCN(c3cccc(F)c3)CC2)o1` were, in that order, 68.9% and 3030 nM.
Consider `CCCc1nc(-c2ccccc2)c(CNCCN2CCN(c3ccccc3C(F)(F)F)CC2)o1`, for which the inhibition in assay [1] came out at 54.6%. For the same molecule, the IC50 in assay [2] was 2100 nM.
With `CCCc1nc(-c2ccccc2)c(CNCCN2CCN(c3cccc(F)c3)CC2)o1`, the inhibition in assay [1] stood at 62.3%. Further, the IC50 in assay [2] was found to be 3350 nM.
Turning to `CCCc1nc(-c2ccccc2)c(CNCCN2CCN(c3ccccc3Cl)CC2)o1`, the inhibition in assay [1] was 60.1%. Further, the IC50 in assay [2] was 4370 nM.
With `CCCc1nc(-c2ccccc2)c(CNCCCN2CCN(c3cccc(Cl)c3)CC2)o1`, the inhibition in assay [1] amounted to 65.9%. In addition, the IC50 in assay [2] came out at 1750 nM.
The matching figures for `CCCc1nc(-c2ccccc2)c(CNCCN2CCN(c3ccc(C)c(C)c3)CC2)o1`: 67.9% and 2220 nM.
For the molecule `CCCc1nc(-c2ccccc2)c(CNCCN2CCN(c3ccc(Cl)cc3)CC2)o1`, the inhibition in assay [1] came out at 55.8%. Moreover, the IC50 in assay [2] turned out to be 2820 nM.
The like results for `CCCc1nc(-c2ccccc2)c(CNCCCN2CCN(c3ccccc3Cl)CC2)o1` were, in that order, 64.7% and 2800 nM.
Take `CCCc1nc(-c2ccccc2)c(CNCCN2CCN(c3ccccn3)CC2)o1`: the inhibition in assay [1] worked out at 48.1%.
Take `CCCc1nc(-c2ccccc2)c(CNCCCN2CCN(c3ccc(F)cc3)CC2)o1`: the inhibition in assay [1] came out at 62.5%. In assay [2], the IC50 worked out at 3210 nM.
As to `CCCc1nc(-c2ccccc2)c(CNCCN2CCN(c3ccc(C)cc3)CC2)o1`, in assay [1], the inhibition amounted to 48.1%.
`CCCc1nc(-c2ccccc2)c(CNCCN2CCN(C(c3ccccc3)c3ccccc3)CC2)o1`: the inhibition in assay [1] stood at 71.8%. Also, the IC50 in assay [2] stood at 7470 nM.
With `CCCc1nc(-c2ccccc2)c(CNCCN2CCN(c3ccccc3F)CC2)o1`, the inhibition in assay [1] turned out to be 46.5%.
The same measure, in the same setting: the figure for `CCCc1nc(-c2ccccc2)c(CNCCCN2CCN(c3ccccc3C(F)(F)F)CC2)o1` is 45%.
Consider `CCCc1nc(-c2ccccc2)c(CNCCN2CCN(c3ccccc3C)CC2)o1`, for which, in assay [1], the inhibition was 51.3%. The IC50 in assay [2] was determined as 4300 nM.
Take `Cc1nc(-c2ccccc2)c(CNCCN2CCN(C(c3ccccc3)c3ccccc3)CC2)o1`: in assay [1], the inhibition was 57.3%.
As to `CCCc1nc(-c2ccccc2)c(CNCCN2CCN(c3cccc(C)c3C)CC2)o1`, the inhibition in assay [1] was found to be 66.7%. Besides, the IC50 in assay [2] was 1710 nM.
The like results for `CCCc1nc(-c2ccccc2)c(CNCCCN2CCN(c3ccc(C(F)(F)F)cc3)CC2)o1` were, in that order, 51.6% and 7250 nM.
Take `CCCc1nc(-c2ccccc2)c(CNCCN2CCN(c3ccccc3)CC2)o1`: the inhibition in assay [1] is 54.3%. Further, in assay [2], the IC50 worked out at 10200 nM.
Regarding `CCCc1nc(-c2ccccc2)c(CNCCCN2CCN(c3cccc(OC)c3)CC2)o1`, the inhibition in assay [1] worked out at 36.4%.
